From ChEMBL document CHEMBL1149063, “Secondary metabolites by chemical screening, 26.1 7-O-beta-D-galactosyl-brefeldin A via transglycosylation with Penicillium brefeldianum” (J Nat Prod, 1994)
Converted amounts (≈) assume the structure as drawn.

What was measured:
HT-29 = experiment: Antiproliferative activity against human HT-29 cells by MTT reduction assay; assay type: functional, cell-based
A549 = experiment: Antiproliferative activity against human A549 cells by MTT reduction assay; assay type: functional, cell-based
L1210 = experiment: Antiproliferative activity against mouse L1210 cells by MTT reduction assay; assay type: functional, cell-based
[1] = Toxicity in po dosed rat; assay type: organism-based; settings: in vivo

Row | Compound | IC50 (HT-29) [µg/mL] | IC50 (A549) [µg/mL] | IC50 (L1210) [µg/mL] | LD50 [1] [mg/kg]
1 | C[C@H]1CCC/C=C/[C@@H]2C[C@H](O[C@@H]3O[C@H](CO)[C@H](O)[C@H](O)[C@H]3O)C[C@H]2[C@H](O)/C=C/C(=O)O1 [7-O-BETA-D-GALACTOSYL-BREFELDIN A] | 1.3 (≈ 2.94 µM) | 1.2 (≈ 2.71 µM) | 10 (≈ 22.6 µM) | 
2 | C[C@H]1CCC/C=C/[C@@H]2C[C@H](O)C[C@H]2[C@H](O)/C=C/C(=O)O1 [BREFELDIN A] |  |  |  | 275
